1 substance from patent US8546340B2, “Soothing pharmaceutical or cosmetic composition comprising a peptide that activates HMG-CoA reductase” (ISP Investments Inc., priority 2008, dated 2013) can be followed below.

Assay [1] has as its system interleukin-1 alpha. The assay can be described thus: Ex vivo IL-1 alpha secretion by human skin biopsies (ELISA). The following applies: peptide 0.5 ppm 24 h, vs controls untreated by the peptide. It is filed as cell-based. How it is done:
Protocol: 5 mm-diameter biopsies of human skin are maintained in culture at the air-liquid interface in the presence of standard culture medium. The samples are treated with a 1% dilution of a solution at 50 ppm of peptide SEQ ID No. 5 for 24 hours, and then irradiated by UVB radiation (200 mJ/cm^2) and put back in culture for 24 hours, or subjected to contact with SDS at 2.5% for 24 hours in the presence of the same concentration of peptide SEQ ID No. 5. Controls untreated by the peptide are carried out under the same conditions. At the end of the experiment, the quantity of interleukin-1 alpha salted out in the culture medium is assayed by the ELISA technique.

In assay [2] the test system is HMG-CoA reductase. The assay can be described thus: Expression of HMG-CoA reductase in normal human keratinocytes (immunofluorescence). Type of assay: cell-based. The following applies: peptide 0.5 ppm (1% of 50 ppm stock), 24 or 48 hours. The method, then: Protocol: Normal human keratinocytes in culture are treated with a 1% stock solution at 50 ppm of peptide SEQ ID No. 5 for 24 or 48 hours (the medium in the presence of the active ingredient is changed every 24 hours). The cells are then washed and fixed in cold methanol for 4 minutes at 4° C. The cells are incubated in the presence of a polyclonal rabbit antibody specific for HMG-CoA reductase (Millipore, Upstate), and then a secondary antibody coupled with a fluorescent dye. The cells are then examined by epifluorescence microscope (Nikon Eclipse E600 microscope).

No end group written: not given here.

For “Ala-Gly-Glu-Leu-Ser-NH2 (AGELS-NH2) [Peptide SEQ ID No. 5]”, the “reduction of quantity of IL-1 alpha salted out in culture medium” value in assay [1] (SDS 2.5% for 24 hours with peptide) came out at 58%; in assay [1] (UVB 200 mJ/cm^2, then 24 h culture) it was 40%. Also, the “expression of HMG-CoA reductase (cytoplasmic fluorescence, microscopic observation)” value in assay [2] is recorded as “more intense cytoplasmic fluorescence”.
